In patent publication US20250171495A1, “MUTLI-TARGETED SERINE PROTEASE INHIBITORS FOR TREATMENT OF CANCER AND VIRAL INFECTION” (Washington University, priority 2023, published 2025):
pIC50: −log10 of the molar value. Read-outs that look alike come from different tables or passages of the source.

How the values were obtained:
Format in all cases: biochemical
matriptase = target: T1, matriptase (Homo sapiens, UniProt Q9Y5Y6); experiment: Fluorogenic kinetic enzyme inhibitor assay, matriptase
T1 construct: purchased R&D Systems 3946-SEB-010
T1 sequence (Q9Y5Y6 615-855 limits assumed): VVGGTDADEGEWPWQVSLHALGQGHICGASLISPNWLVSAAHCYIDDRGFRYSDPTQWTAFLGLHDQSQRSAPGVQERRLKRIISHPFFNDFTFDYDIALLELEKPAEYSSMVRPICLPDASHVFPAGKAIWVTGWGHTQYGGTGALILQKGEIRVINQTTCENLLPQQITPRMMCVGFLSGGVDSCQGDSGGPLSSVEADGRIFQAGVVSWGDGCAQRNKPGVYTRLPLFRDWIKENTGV

hepsin = target: T2, hepsin (Homo sapiens, UniProt P05981); experiment: Fluorogenic kinetic enzyme inhibitor assay, hepsin
T2 construct: purchased R&D Systems 4776-SE-010
T2 sequence (P05981 163-417 limits assumed): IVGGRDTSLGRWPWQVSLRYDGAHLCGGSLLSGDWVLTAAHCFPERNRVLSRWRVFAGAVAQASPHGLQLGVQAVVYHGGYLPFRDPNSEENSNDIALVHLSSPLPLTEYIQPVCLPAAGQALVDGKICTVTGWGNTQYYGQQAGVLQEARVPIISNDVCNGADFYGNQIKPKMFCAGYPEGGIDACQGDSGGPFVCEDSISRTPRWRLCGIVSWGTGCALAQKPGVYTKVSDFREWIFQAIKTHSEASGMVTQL
T2 sequence (P05981 1-162 partner limits assumed): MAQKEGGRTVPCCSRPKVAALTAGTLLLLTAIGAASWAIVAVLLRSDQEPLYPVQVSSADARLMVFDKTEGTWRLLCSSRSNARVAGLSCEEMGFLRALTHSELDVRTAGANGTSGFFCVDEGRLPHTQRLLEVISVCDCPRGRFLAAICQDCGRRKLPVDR

HGFA = target: T3, HGFA (Homo sapiens, UniProt Q04756); experiment: Fluorogenic kinetic enzyme inhibitor assay, HGFA
T3 construct: purchased R&D Systems 1514-SE-010
T3 sequence (Q04756 408-655 limits assumed): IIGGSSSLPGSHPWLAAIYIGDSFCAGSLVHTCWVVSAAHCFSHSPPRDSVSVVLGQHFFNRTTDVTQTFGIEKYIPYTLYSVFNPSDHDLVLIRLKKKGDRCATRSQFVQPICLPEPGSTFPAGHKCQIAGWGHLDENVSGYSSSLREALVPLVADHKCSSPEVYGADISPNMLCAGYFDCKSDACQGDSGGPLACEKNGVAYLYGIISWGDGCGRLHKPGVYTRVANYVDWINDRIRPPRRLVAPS
T3 sequence (Q04756 373-407 partner limits assumed): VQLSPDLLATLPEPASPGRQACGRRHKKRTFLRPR

Thrombin = Thrombin (Homo sapiens, UniProt P00734); experiment: Fluorogenic assay, thrombin
Factor Xa = target: T4, Factor Xa (Homo sapiens, UniProt P00742); experiment: Fluorogenic assay, Factor Xa
T4 construct: TMPRSS2; Matriptase; Hepsin; HGFA; Thrombin; Factor Xa
T4 sequence (P00742 235-488 limits assumed): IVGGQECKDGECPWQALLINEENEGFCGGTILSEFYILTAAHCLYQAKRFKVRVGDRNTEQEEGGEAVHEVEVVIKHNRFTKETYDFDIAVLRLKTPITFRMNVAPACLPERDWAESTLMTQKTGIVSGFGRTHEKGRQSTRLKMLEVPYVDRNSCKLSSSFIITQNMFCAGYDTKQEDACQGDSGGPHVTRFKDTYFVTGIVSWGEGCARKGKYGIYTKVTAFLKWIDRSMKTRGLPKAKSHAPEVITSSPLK
T4 sequence (P00742 41-179 partner limits assumed): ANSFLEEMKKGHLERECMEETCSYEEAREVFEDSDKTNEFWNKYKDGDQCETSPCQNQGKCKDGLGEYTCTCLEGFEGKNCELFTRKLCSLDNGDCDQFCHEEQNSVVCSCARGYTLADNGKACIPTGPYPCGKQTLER

TMPRSS2 = TMPRSS2 (Homo sapiens, UniProt O15393); experiment: Fluorogenic kinetic enzyme inhibitor assay, TMPRSS2; design: purchased Cusabio Technology CSB-YP023924HU; conditions: read-out: TMPRSS2 IC50
Chain of TMPRSS2 (O15393 106-492 limits assumed): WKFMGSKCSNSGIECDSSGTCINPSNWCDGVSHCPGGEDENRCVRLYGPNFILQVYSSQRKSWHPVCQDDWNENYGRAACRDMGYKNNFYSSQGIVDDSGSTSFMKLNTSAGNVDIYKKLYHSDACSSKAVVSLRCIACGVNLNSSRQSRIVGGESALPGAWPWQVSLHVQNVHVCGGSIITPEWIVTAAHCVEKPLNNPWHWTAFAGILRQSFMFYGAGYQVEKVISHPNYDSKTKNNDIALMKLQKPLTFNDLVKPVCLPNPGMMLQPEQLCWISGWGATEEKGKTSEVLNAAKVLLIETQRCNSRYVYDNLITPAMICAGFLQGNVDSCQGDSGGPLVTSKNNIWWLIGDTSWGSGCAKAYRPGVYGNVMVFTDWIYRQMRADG

[1] = 30 min incubation, Boc-QAR-AMC at Km, read-out: Matriptase IC50
[2] = 30 min incubation, Boc-QLR-AMC at Km, read-out: HGFA IC50
[3] = 30 min incubation, Boc-QAR-AMC at Km
[4] = 30 min incubation, Boc-QAR-AMC at Km, read-out: Hepsin IC50

Structure (SMILES) | pIC50 (matriptase; read-out: Matriptase IC50) | pIC50 (hepsin; read-out: Hepsin IC50) | pIC50 (HGFA; read-out: HGFA IC50) | pIC50 (Thrombin) | pIC50 (Factor Xa; read-out: Factor Xa IC50) | pIC50 (TMPRSS2) | pIC50 (matriptase) | pIC50 (hepsin) | pIC50 (HGFA) | pIC50 (matriptase; [1]) | pIC50 (HGFA; [2]) | pIC50 (TMPRSS2; [3]) | pIC50 (hepsin; [4]) | pIC50 (Factor Xa)
CC(=O)N[C@H](Cc1c[nH]c2ccccc12)C(=O)N[C@@H](CC(C)C)C(=O)N[C@@H](CCCNC(=N)N)C(=O)c1nc2ccccc2s1 [PK-1-91, N-[(S)-1-[(1,3-benzothiazol-2-yl)carbonyl]-4-guanidinobutyl](S)-2-[(R)-2-acetylamino-3-(3-indolyl)propionylamino]-4-methylvaleramide] | 7.41 | 8.80 | 6.98 | 5.03 | 5.84 | 10.59 |  |  |  |  |  |  |  | 
N=C(N)NCCC[C@H](NC(=O)[C@H](Cc1ccccc1)NC(=O)[C@H](CCC(N)=O)N1CCCCC1)C(=O)c1nc2ccccc2s1 [CA1046-2, N-[(S)-1-[N-(S)-1-[(1,3-benzothiazol-2-yl)carbonyl]-4-guanidinobutylcarbamoyl]-2-phenylethyl](S)-2-piperidinoglutaramide] | 7.38 | 9.43 | 6.15 | < 4.70 | 5.68 | 8.08 |  |  |  |  |  |  |  | 
CC(=O)N[C@@H](Cc1c[nH]c2ccccc12)C(=O)N[C@@H](CC(C)C)C(=O)N[C@@H](Cc1ccccc1)C(=O)N[C@@H](CCCNC(=N)N)C(=O)c1nc2ccccc2s1 [ZFH7064, N-[(S)-1-[N-(S)-1-[(1,3-benzothiazol-2-yl)carbonyl]-4-guanidinobutylcarbamoyl]-2-phenylethyl](S)-2-[(S)-2-acetylamino-3-(3-indolyl)propionylamino]-4-methylvaleramide] |  |  |  | < 4.70 | 8.70 | 10.04 | 7.92 | 9.16 | 6.58 |  |  |  |  | 
CC(=O)N[C@H]1Cc2ccc(cc2)OCCCC[C@@H](C(=O)N[C@@H](CCCNC(=N)N)C(=O)c2nc3ccccc3s2)NC(=O)[C@H](Cc2c[nH]c3ccccc23)NC1=O [VD4158, N-[(S)-1-[(1,3-benzothiazol-2-yl)carbonyl]-4-guanidinobutyl]-(7S,10S,13S)-13-acetylamino-10-[(3-indolyl)methyl]-9,12-dioxo-2-oxa-8,11-diazabicyclo[13.2.2]nonadeca-1(17),15,18-triene-7-carboxamide] |  |  |  | < 4.70 | 5.02 |  |  | 8.55 |  | 7.25 | 7.07 | 7.80 |  | 
CC(=O)N[C@H]1Cc2ccc(cc2)OC/C=C\C[C@@H](C(=O)N[C@@H](CCCNC(=N)N)C(=O)c2nc3ccccc3s2)NC(=O)[C@@H](Cc2c[nH]c3ccccc23)NC1=O [VD5027, N-[(S)-1-[(1,3-benzothiazol-2-yl)carbonyl]-4-guanidinobutyl]-(4Z,7S,10R,13S)-13-acetylamino-10-[(3-indolyl)methyl]-9,12-dioxo-2-oxa-8,11-diazabicyclo[13.2.2]nonadeca-1(17),4,15,18-tetraene-7-carboxamide] |  |  |  | 4.70 | 5.87 |  |  |  |  | 8.25 | 8.34 | 9.01 | 9.16 | 
CC(=O)N[C@@H](CO)C(=O)N[C@@H](CCCCN)C(=O)N[C@@H](Cc1ccccc1)C(=O)N[C@@H](CCCNC(=N)N)C(=O)c1nccs1 [ZFH6095, N-[(S)-1-[N-(S)-4-guanidino-1-[(1,3-thiazol-2-yl)carbonyl]butylcarbamoyl]-2-phenylethyl](S)-2-[(S)-2-acetylamino-3-hydroxypropionylamino]-6-aminohexanamide] |  | 7.77 |  | < 4.70 | 5.97 | 8.10 | 8.21 |  | 6.94 |  |  |  |  | 
CCC(C)[C@H](NC(C)=O)C(=O)N[C@@H](CCC(N)=O)C(=O)N[C@@H](Cc1c[nH]c2ccccc12)C(=O)N[C@@H](CCCNC(=N)N)C(=O)c1nc2ccccc2s1 (stereo partly drawn) [MM3187, N-[(S)-2-(3-indolyl)-1-[N-(S)-1-[(1,3-benzothiazol-2-yl)carbonyl]-4-guanidinobutylcarbamoyl]ethyl](S)-2-[(2S)-2-acetylamino-3-methylvalerylamino]glutaramide] |  | 9.50 | 5.84 | < 4.70 | 6.89 | 8.66 | 8.91 |  |  |  |  |  |  | 
N=C(N)NCCC[C@H](NC(=O)[C@H](Cc1ccccc1)NC(=O)[C@H](CCC(N)=O)NC(=O)Cc1ccccc1)C(=O)c1nc2ccccc2s1 [CA1018, N-[(S)-1-[N-(S)-1-[(1,3-benzothiazol-2-yl)carbonyl]-4-guanidinobutylcarbamoyl]-2-phenylethyl](S)-2-(benzylcarbonylamino) glutaramide] | 9.00 | 9.19 | 7.12 | < 4.70 | 6.67 | 9.39 |  |  |  |  |  |  |  | 
CC(=O)N[C@@H](Cc1c[nH]c2ccccc12)C(=O)N[C@@H](CC(C)C)C(=O)N[C@@H](CCCNC(=N)N)C(=O)c1nc2ccccc2s1 [PK-1-104, N-[(S)-1-[(1,3-benzothiazol-2-yl)carbonyl]-4-guanidinobutyl](S)-2-[(S)-2-acetylamino-3-(3-indolyl)propionylamino]-4-methylvaleramide] | 7.59 | 9.03 | 7.12 | 4.77 | 6.05 | 8.89 |  |  |  |  |  |  |  | 
CC(=O)N[C@@H](CC(C)C)C(=O)N[C@@H](CCC(N)=O)C(=O)N[C@@H](Cc1ccccc1)C(=O)N[C@@H](CCCNC(=N)N)C(=O)c1nc2ccccc2s1 [MM3131, N-[(S)-1-[N-(S)-1-[(1,3-benzothiazol-2-yl)carbonyl]-4-guanidinobutylcarbamoyl]-2-phenylethyl](S)-2-[(S)-2-acetylamino-4-methylvalerylamino]glutaramide] |  |  |  | < 4.70 |  | 10.51 | 8.74 | 9.61 | 7.01 |  |  |  |  | 6.66
CC(=O)N[C@H]1Cc2ccc(cc2)OCCCC[C@@H](C(=O)N[C@@H](CCCNC(=N)N)C(=O)c2nc3ccccc3s2)NC(=O)[C@H](CC(C)C)NC1=O [VD4072, N-[(S)-1-[(1,3-benzothiazol-2-yl)carbonyl]-4-guanidinobutyl]-(7S,10S,13S)-13-acetylamino-10-isobutyl-9,12-dioxo-2-oxa-8,11-diazabicyclo[13.2.2]nonadeca-1(17),15,18-triene-7-carboxamide] |  |  |  | < 4.70 | 5.58 |  |  |  |  | 7.49 | 7.40 | 8.01 | 9.04 | 
CC(=O)N[C@H]1CCCCn2cc(nn2)C[C@H](C(=O)N[C@H](CCCNC(=N)N)C(=O)c2nc3ccccc3s2)NC(=O)[C@H](CC(C)C)NC1=O [VD4118A, N-[(R)-1-[(1,3-benzothiazol-2-yl)carbonyl]-4-guanidinobutyl]-(6S,9S,12R)-6-acetylamino-9-isobutyl-7,10-dioxo-1,8,11,15,16-pentaazabicyclo[12.2.1]heptadeca-14(17),15-diene-12-carboxamide] |  | 6.93 | 4.81 | < 4.70 | 5.71 |  | 7.71 |  |  |  |  |  |  | 
CC(=O)N[C@H](Cc1c[nH]c2ccccc12)C(=O)N[C@@H](CCCCNC(=N)N)C(=O)N[C@@H](CCC(C)C)C(=O)N[C@@H](CCCNC(=N)N)C(=O)c1nc2ccccc2s1 [JH1140-2, N-[(S)-1-[(1,3-benzothiazol-2-yl)carbonyl]-4-guanidinobutyl](S)-2-[(S)-1-[(R)-2-acetylamino-3-(3-indolyl)propionylamino]-5-guanidinopentylcarbonylamino]-5-methylhexanamide] |  | 9.35 | 8.32 | < 4.70 | 8.04 |  | 9.34 |  |  |  |  |  |  | 
CC(=O)N[C@H](Cc1c[nH]c2ccccc12)C(=O)N[C@@H](Cc1ccccc1)C(=O)N[C@@H](CCCNC(=N)N)C(=O)c1nc2ccc(C(=O)O)cc2s1 [PK-1-93, 2-[(S)-2-[(S)-2-[(R)-2-acetylamino-3-(3-indolyl)propionylamino]-3-phenylpropionylamino]-5-guanidinovaleryl]-1,3-benzothiazole-6-carboxylic acid] | 6.87 | 8.70 | 7.02 | 4.70 | 7.52 |  |  |  |  |  |  |  |  | 
CC(=O)N[C@@H](CCCCNC(=N)N)C(=O)N[C@@H](CCC(C)C)C(=O)N[C@@H](CCCNC(=N)N)C(=O)c1nc2ccccc2s1 [JH1141-2, N-[(S)-1-[(1,3-benzothiazol-2-yl)carbonyl]-4-guanidinobutyl](S)-2-[(S)-1-acetylamino-5-guanidinopentylcarbonylamino]-5-methylhexanamide] | 8.97 | 8.94 | 7.98 | < 4.70 | 6.92 |  |  |  |  |  |  |  |  | 
